“And” between values parts separate entries of the source, which are not always exact repeats. Equal values may be shown once.
Key:
[1] = Caco2 permeability (bidirectional); format: in vitro ADME; settings: human, Caco-2; Papp B–A/Papp A–B
Protocol: The medium was changed regularly and on day 20 the permeability study was performed. The monolayers were prepared by rinsing the apical and basolateral surfaces with Hanks Balanced Salt Solution (HBSS) twice at the desired pH and by incubating for 40 min to stabilize the physiological parameters. […] The compounds were diluted with buffer to a concentration of 10 μM (final DMSO concentration ≤1%) and added to the apical or basolateral sides of the cell monolayer. Compound permeability was assessed in duplicates and molecules of known permeability characteristics were used as controls (antipyrine, atenolol, talinolol, and estrone 3-sulfate). To calculate Papp, compound appearance was measured using LC–MS/MS. The efflux ratio was determined for bidirectional assays.

[2] = Body weight / tolerability in the K562-R xenograft study; settings: for Body Weight, individual animal / Body Weight, group mean: PO QD x 30 days (imatinib 50 mg/kg, 7c 10 mg/kg); for Body Weight, individual animal: animals No. 1–7; for Body Weight, group mean: n = 7

Structure (SMILES)	efflux ratio at 10 µM [1]	tolerability ([2]; 7c 10 mg/kg, imatinib 50 mg/kg, PO QD × 30 days)	Body Weight, individual animal ([2]; Day 1)	Body Weight, group mean ([2]; Day 1) [g]	Body Weight, individual animal ([2]; Day 5)	Body Weight, individual animal ([2]; Day 8)	Body Weight, group mean ([2]; Day 8) [g]	Body Weight, individual animal ([2]; Day 12)	Body Weight, individual animal ([2]; Day 15)	Body Weight, group mean ([2]; Day 15) [g]	Body Weight, individual animal ([2]; Day 19)	Body Weight, individual animal ([2]; Day 22)	Body Weight, group mean ([2]; Day 22) [g]	Body Weight, individual animal ([2]; Day 26)	Body Weight, individual animal ([2]; Day 29)	Body Weight, individual animal ([2]; Day 33)	Body Weight, group mean ([2]; Day 33) [g]
CCCc1nc2c(C)cc(-c3nc4ccccc4n3C)cc2n1Cc1ccc(-c2ccccc2C(=O)OC)cc1 [7b, Methyl 4′-((1,7′-dimethyl-2′-propyl-1H,3′H-[2,5′-bibenzo[d]imidazole]-3′-yl)methyl)-[1,1′-biphenyl]-2-carboxylate]	1.24																
CCCc1nc2c(C)cc(-c3nc4ccccc4n3C)cc2n1Cc1ccc(-c2ccccc2C(N)=O)cc1 [7c, 4′-((1,7′-Dimethyl-2′-propyl-1H,3′H-[2,5′-bibenzo[d]imidazole]-3′-yl)methyl)-[1,1′-biphenyl]-2-carboxamide]		well tolerated	23 g and 25 g and 26 g and 21 g	24.1	23 g and 24 g and 25 g and 26 g and 21 g	23 g and 22 g and 26 g and 28 g and 24 g	24.0	23 g and 22 g and 25 g and 27 g and 24 g	23 g and 22 g and 25 g and 27 g and 21 g	23.4	23 g and 25 g and 22 g and 28 g	24 g and 25 g and 23 g and 27 g and 22 g	24.1	25 g and 26 g and 22 g and 27 g and 23 g	23 g and 26 g and 21 g and 28 g and 24 g and 22 g	24 g and 27 g and 22 g and 26 g and 28 g and 23 g	25.1

From paper PMC11726677, “Eradication of Therapy-Resistant Cancer Stem Cells by Novel Telmisartan Derivatives” (Journal of Medicinal Chemistry, 2024)
